Several values for one entry are separate records, joined by “and”; a condition that tells them apart may be missing. Equal values may be shown once.
How the values were obtained:
[1] = biological target: T1, Recombinant human Hsp90 alpha protein (Homo sapiens, UniProt P07900); assay: Transcreener ADP FP Hsp90 ATPase assay; format: biochemical; details: Recombinant human HSP90, 100 μM ATP; read-out: ATPase assay on rh-Hsp90 IC50
T1 construct: human full‐length protein, expressed in Escherichia coli; His tag (C); purchased Abcam ab80369; host or cells: Escherichia coli
Procedure: Transcreener ADP (cat. no. 3004‐1K) and ADP2 (cat. no. 3010‐1K) FP assay kits were obtained from Bellbrook Laboratories. Recombinant human Hsp90 alpha protein (active), human full‐length protein, expressed in Escherichia coli with > 90% purity and C‐terminus His tag, was purchased from Abcam (ab80369). All FP assays were carried out in black, 384‐well, low‐volume, polystyrene nonbinding microplates from Corning Life Sciences. All basic buffer components were obtained from Sigma‐Aldrich Chemical Co. 17‐AAG (Figure 1) was obtained from Abcam. Using the Transcreener ADP FP kit, the conditions for the recombinant human Hsp90 ATPase reaction were 50 mM HEPES (pH 7.4), 20 mM KCl, 2 mM EGTA, 4 mM MgCl2, and 0.01% Brij‐35 in a 10‐μL total assay volume. The final assay concentration of ATP was 100 μM for Hsp90. Due to the relatively low level of ATPase activity compared with other enzymes, the plate was incubated at 37°C and run over 1, 2 and 3 h time points. The reaction was stopped, and the ADP was detected by adding 10 μL of 50 mM HEPES (pH 7.4), 400 mM NaCl, 20 mM EDTA, 0.01% Brij35, 75 μg/mL anti‐ADP monoclonal antibody, and 4 nM ADP far red tracer. The plate was sealed, centrifuged at 600 g for 1 min, and left at room temperature for 1 h. FP readings for the Hsp90 ATPase Transcreener assays were performed on a Clariostar plate reader ([…]). A blank mP signal composed of protein, antibody, labelled ADP, but no ATP substrate gave similar mP values to those seen in the no‐protein controls. The upper limit of the assay window was defined by a no‐protein control, and the mP in the presence of heat shock protein was subtracted from this control to generate a change in polarisation (ΔmP), which was plotted on the activity graphs. Therefore, the data take into account the spontaneous hydrolysis of ATP. Each value is the mean of triplicate determinations with standard deviations (SD) shown. IC50 values were calculated using GraphPad Prism software with the nonlinear regression curve fitted to the log (inhibitor concentration) against the raw mP values on the linear portion of the standard curve.

[2] = CellTiter-Blue cell viability assay, HEK-293 (24 h); format: cell-based, human; details: human, HEK-293 cells, CellTiter-Blue, 24 h incubation, 10 μM test compound, standardised to DMSO control
Procedure: (§1) Human Embryonic Kidney cells (HEK‐293) and human breast cancer cells (MCF‐7, MDA‐MB‐231 and HCC1954) were cultured in complete growth media: […] 1X (Gibco); 10% v/v Fetal Bovine Serum (FBS, Sigma Dorset UK) and L‐glutamine (2 mM, Invitrogen). SW‐480‐WT cells were maintained in selective media made up of Dulbecco's Modified Eagle Medium (Gibco), enriched with […] of Geneticin Selective Antibiotic (G418 Sulfate; Gibco, Thermo Fisher). Cells were incubated at a 5% CO2 atmosphere at 37°C.
(§2) Cells were cultured in 96‐well plates in 90 μL at a seeding density of 1 × 10^6 cells per well. Compound samples were prepared at different concentrations (1 mM, 100 μM, 10 μM, 1 μM, 100 nM, 10 nM) and 10 μL of each concentration was seeded in each well. Two different negative controls were used: DMSO 0.01% and 0.001%. Paclitaxel (30% w/v) was used as a positive control. Cells were treated for 24 h after which 20 μL of CellTitre‐Blue reagent (Promega, Southampton, UK) was added and incubated for 2 h at 37°C in 5% CO2. Fluorescence was measured at 560/590 nm on a Fluorostar Optima plate reader (BMG Labtech, Bucks, UK). Assay end points were normalised to 0% (DMSO only) and fitted to a semilog plot using at least n = 3 technical replicates (n = 6 for DMSO control and paclitaxel control) and N = 3 independent replicates. The curve fit was performed using the GraphPad Prism software and the standard Hill equation.
(§3) In view of previous reports on Hsp90 inhibitors and their effects on cancer cell viability (Eachkoti et al. [2014]) and clonogenicity (Kinzel et al. [2016]), new compounds were tested for inhibition of cell viability within both non‐tumourigenic (HEK‐293) and breast cancer cell lines (MDA‐MB‐231) at a fixed concentration of 10 μM. The well‐established CellTiter‐Blue endpoint assay was used to assess cell viability. New compounds were also assessed in a colony forming assay (MCF‐7 breast cancer cell line), used as an efficacy screening to provide an indication of the inhibition of clonogenicity for these small molecules (Table 1).

HEK-293 cells = assay: as above; format: cell-based, human; details: Homo sapiens, HEK293; 24 h incubation time
Procedure: as §1, §2, §3

MCF-7 cells = assay: Colony forming assay, MCF-7; format: cell-based, human; details: for IC50: Homo sapiens, MCF7, 168 h, 7 days; for % Clonogenicity (MCF-7, 10 μM): percentage of survival colonies, 7-day incubation, standardised to DMSO control
Procedure: as §1
Cells were seeded in a 12‐well plate at 400 cells per well. One hour after the seeding of the cells, compounds (1 mM, 100 μM, 10 μM, 1 μM, 100 nM, 10 nM) or vehicle were added into the wells in triplicate (DMSO vehicle 0.1% and 1%). After 7 days, colonies were stained with 350 μL of crystal violet solution, incubated for 30 min at room temperature, then wells were washed in water and dried. At least the best 3 independent experiments out of 5 independent repeats were used to perform the statistical analysis of the results. Colonies were counted by GelCount Colony Counter (Oxford Optronix Ltd.) using the GelCount 1.1.8.0 software. Assay end points were normalised to 0% (DMSO only) and fitted to a semi‐log plot using at least n = 3 technical replicates (n = 6 for DMSO control and N = 3 independent replicates). The curve fit was performed using GraphPad Prism.
as §3

MDA-MB-231 cells = assay: CellTiter-Blue cell viability assay, MDA-MB-231 (24 h); format: cell-based, human; details: for GI50: 24 h incubation time; for viability at 10 µM / % Viability (MDA-MB-231, 10 μM): CellTiter-Blue, 24 h incubation, 10 μM test compound, standardised to DMSO control
Procedure: as §1, §2, §3

Row | SMILES | IC50 [1] | viability at 24 h, 10 µM [2] | GI50 (HEK-293 cells) | IC50 (MCF-7 cells) | % Clonogenicity (MCF-7, 10 μM) (MCF-7 cells) | GI50 (MDA-MB-231 cells; Homo sapiens, MDA-MB-231, 24 h) | viability at 10 µM (MDA-MB-231 cells; Homo sapiens, MDA-MB-231, 24 h) | GI50 (MDA-MB-231 cells) | % Viability (MDA-MB-231, 10 μM) (MDA-MB-231 cells)
1 | COc1cccc(COC(=O)C2=C(C)NC(=O)NC2c2ccc(Cl)cc2)c1 (stereo not shown) [Compound 5h, 3‐Methoxybenzyl 4‐(4‐Chlorophenyl)‐6‐Methyl‐2‐Oxo‐1,2,3,4‐Tetrahydropyrimidine‐5‐Carboxylate] | 6.47 µM | 81 ± 2.36% | 12.3 µM | 9.08 µM | 42.34 ± 4.80% | 23.7 µM | 88 ± 3.1% |  | 
2 | COc1ccc(C2NC(=O)NC(C)=C2C(=O)OCc2ccc3c(c2)OCO3)cc1 (stereo not shown) [Compound 5k, Benzo[d] [1,3] Dioxol‐5‐ylmethyl 4‐(4‐Methoxyphenyl)‐6‐Methyl‐2‐Oxo‐1,2,3,4‐Tetrahydropyrimidine‐5‐Carboxylate] | 20.2 µM | 98.6 ± 1.31% | 63 µM | 2.46 µM | 99.85 ± 3.27% | 77.2 µM | 98.7 ± 2.6% |  | 
3 | COc1ccc(COC(=O)C2=C(C)NC(=O)NC2c2ccc(Cl)cc2)cc1 (stereo not shown) [Compound 5i, 4‐Methoxybenzyl 4‐(4‐Chlorophenyl)‐6‐Methyl‐2‐Oxo‐1,2,3,4‐Tetrahydropyrimidine‐5‐Carboxylate] | 9.59 µM | 94.3 ± 2.95% | 98.5 µM | 0.56 µM | 8.39% and 8.39 ± 2.84% | 40 µM | 83.26 ± 0.69% | 40 µM | 
4 | CC1=C(C(=O)OCc2ccccc2)C(c2ccc(OC(F)(F)F)cc2F)NC(=O)N1 (stereo not shown) [Compound 5f, Benzyl 4‐(2‐Fluoro‐4‐(Trifluoromethoxy)phenyl)‐6‐Methyl‐2‐Oxo‐1,2,3,4‐Tetrahydropyrimidine‐5‐Carboxylate] | 13.7 µM | 95.1 ± 3.82% | 16.4 µM | 2.29 µM | 72.41 ± 3.21% | 98.9 µM | 85.7 ± 2.65% |  | 
5 | CC1=C(C(=O)OCc2ccccc2)C(c2ccccc2F)NC(=O)N1 (stereo not shown) [Compound 5m, Benzyl 4‐(2‐Fluorophenyl)‐6‐Methyl‐2‐Oxo‐1,2,3,4‐Tetrahydropyrimidine‐5‐Carboxylate] | 16.6 µM | 97.7 ± 3.27% | 20.4 µM | 15.7 µM | 99.95 ± 2.40% | 84.9 µM | 95.2 ± 3.72% |  | 
6 | CC1=C(C(=O)OCc2ccccc2)C(c2ccc(F)cc2)NC(=O)N1 (stereo not shown) [Compound 5l, Benzyl 4‐(4‐Fluorophenyl)‐6‐Methyl‐2‐Oxo‐1,2,3,4‐Tetrahydropyrimidine‐5‐Carboxylate] | 22.9 µM | 98 ± 1.89% | 52.9 µM | 0.89 µM | 82.62 ± 2.93% | 86.6 µM | 100 ± 2.96% |  | 
7 | CC1=C(C(=O)OCc2ccccc2)C(c2ccc(C)cc2F)NC(=O)N1 (stereo not shown) [Compound 5n, Benzyl 4‐(2‐Fluoro‐4‐Methylphenyl)‐6‐Methyl‐2‐Oxo‐1,2,3,4‐Tetrahydropyrimidine‐5‐Carboxylate] | 74.6 µM | 98.7 ± 2.49% | 39.6 µM | 7.17 µM | 90.54 ± 0.81% | 86.7 µM | 97.3 ± 1.3% |  | 
8 | COc1ccc(COC(=O)C2=C(C)NC(=O)NC2c2ccc(Cl)cc2)cc1OC (stereo not shown) [Compound 5c, 3,4‐Dimethoxybenzyl‐4‐(4‐Chlorophenyl)‐6‐Methyl‐2‐Oxo‐1,2,3,4‐Tetrahydropyrimidine‐5‐Carboxylate] | 4.28 µM | 99.4 ± 3.16% | 12.6 µM | 2.46 µM | 64.29 ± 3.69% | 22.7 µM | < 80% |  | 73.55 ± 3.50%
9 | COc1ccc(C2NC(=O)NC(C)=C2C(=O)OCc2ccccc2)c(F)c1 (stereo not shown) [Compound 5a, Benzyl 4‐(2‐Fluoro‐4‐Methoxyphenyl)‐6‐Methyl‐2‐Oxo‐1,2,3,4‐Tetrahydropyrimidine‐5‐Carboxylate] | 5.36 µM | 90.6 ± 3.35% | 71.5 µM | 5.03 µM | 71.87 ± 4.77% | 86.2 µM | 91.33 ± 0.64% |  | 
10 | COc1ccc(COC(=O)C2=C(C)NC(=O)NC2c2ccccc2Cl)cc1OC (stereo not shown) [Compound 5j, 3,4‐Dimethoxybenzyl 4‐(2‐Chlorophenyl)‐6‐Methyl‐2‐Oxo‐1,2,3,4‐Tetrahydropyrimidine‐5‐Carboxylate] | 32.5 µM | 93 ± 2.59% | 58 µM | 3.49 µM | 58.18 ± 4.42% | 65.7 µM | < 80% |  | 76.50 ± 4.28%
11 | COc1ccc(C2NC(=O)NC(C)=C2C(=O)OCc2ccc(OC)c(OC)c2)c(F)c1 (stereo not shown) [Compound 5b, 3,4‐Dimethoxybenzyl 4‐(2‐Fluoro‐4‐Methoxyphenyl)‐6‐Methyl‐2‐Oxo‐1,2,3,4‐Tetrahydropyrimidine‐5‐Carboxylate] | 13.1 µM | 99.9 ± 1.5% | 44.9 µM | 0.68 µM | 71.39 ± 2.94% | 72.1 µM | 89.7 ± 1.37% |  | 
12 | COc1ccc(COC(=O)C2=C(C)NC(=O)NC2c2cccc(Cl)c2)cc1OC (stereo not shown) [Compound 5g, 3,4‐Dimethoxybenzyl 4‐(3‐Chlorophenyl)‐6‐Methyl‐2‐Oxo‐1,2,3,4‐Tetrahydropyrimidine‐5‐Carboxylate] | 32.6 µM | 96.7 ± 3.77% | 39.1 µM | 0.83 µM | 50.04 ± 2.3% | 19.3 µM | < 80% |  | 72.16 ± 7.20%
